Patent publication US20250221981A1, “MAT2A INHIBITOR AND/OR TSG101 INHIBITOR FOR USE IN ANTIVIRAL THERAPY” (CAMBRIDGE ENTERPRISE LIMITED, priority 2022, published 2025)

Tests used:
BKPyV [1] = test: Fluorescence focus unit (FFU) assay of infectious BKPyV from treated RPTE/TERT1 cells; assay type: cell-based, BK polyomavirus; conditions: for reduction in infectious virus production: BKPyV MOI 1
Procedure: (B) Effect of PF-9366 on viral replication: Cells were infected with BKPyV (MOI 1) in media containing appropriate drug concentrations. At 1 hpi infectious media was removed, cells were washed and fresh media with appropriate drug concentrations was added. At 48 hpi cells were harvested and infectious BKPyV was measured by FFU assay. n=3.
(§1) Cells were treated with MAT2A inhibitors at 1 hr post infection and were harvested at 48 hr post infection at MOI 1. (A) Total infectious BKPyV synthesis expressed as fold change to DMSO control (FFU titre assay). (B) Total viral protein expression (LTAg and VP1) was analysed by western blot. Tubulin was used as loading control. All error bars represent SEM. Two sample paired T-test was used to determine significance (*p<0.05; **p<0.01; ***p<0.001, ****p<0.0001), all numerical data shown were obtained over 2 independent experiments.
(§2) RPTE/hTERT cells were treated with inhibitors at 1 hr post infection (PI), infected at MOI 1. (A) Viral growth curves using FFU titre assay in drug treated and untreated cells infected with BKPyV at MOI 1 for 48 hr PI, 72 hr PI and 96 hr PI. (B) Total viral protein expression (LTAg and VP1) from drug treatments and untreated control was analysed by western blot with samples harvested at 48 hr PI and 96 hr PI. Tubulin was used as loading control. All error bars represent SEM. All numerical data shown were obtained over 2 independent experiments.
The ability for PF-9366 to inhibit the production of infectious virus was then investigated. RPTE/TERT1 cells were once again treated with a concentration range of PF-9366 or DMSO as a control prior to infection, and as before, infected with BKPyV (MOI 1) then washed and media replaced at 1 hpi. At 48 hpi total virus was harvested from each condition and an FFU assay was conducted to determine BKPyV virus titre (FIG. 3B).
For BKPyV infections, RPTE/TERT1, RPTE/TERT1-Cas9 or RPTE/TERT1 MAT2A KO cells were infected with BKPyV at either a multiplicity of infection (MOI) of 5 for growth curves or an MOI of 3 or 1 for all other experiments, diluted in appropriate medium. At 1 hour post infection (hpi) medium was removed, cells were washed twice with phosphate-buffered saline (PBS), and fresh medium was added with or without inhibitors. At 24, 48, 72 or 96 hpi cells were either harvested for western blot, RT qPCR or virus titre by FFU assay, or fixed for immunofluorescence analysis.
FFU assays were used to determine the concentration of infectious BKPyV in experimental samples. RPTE/TERT1 cells were infected with sample dilutions, fixed at 48 hpi in 3% formaldehyde, and immunostained for VP1 expression as described in Evans et al. (Open Biol. 2015 August; 5 (8): 150041).
Example 1: PF-9366 (Sigma-Aldrich) and AG-270 (kindly supplied by Astra Zeneca) were diluted in 100% DMSO. Cells were drug treated at a range of concentrations in REBM supplemented with BulletKit (Lonza) for 3 hours prior to infection. Cells were infected with BK-Dunlop in media and appropriate drug dilution. At 1 hpi infectious media was removed, cells gently washed with PBS and media containing appropriate drug dilutions was added. At 48 hpi cells were either fixed in 3% formaldehyde for microscopy, or harvested by scraping up into fresh drug-free media.
TSG101 inhibitor Ilaprazole (Sigma-Aldrich) was diluted in 100% DMSO. Cells were treated at a range of inhibitor concentrations and combinations, in appropriate media for the cell type used, for either 3 hours prior to infection (HSV-1, Alphavirus and Flavivirus infections) or 1 hour post infection (BKPyV infection).

BKPyV [2] = test: Western blot of BKPyV viral protein expression (LTAg, VP1) in RPTE/TERT1 cells; assay type: cell-based, BK polyomavirus
Procedure: (C)(i) Effect of PF-9366 on viral early and late gene and cellular MAT2A expression: Cells were infected with BKPyV (MOI 3) in media containing appropriate drug concentrations. At 1 hpi infectious media was removed, cells were washed and fresh media with appropriate drug concentrations was added. Cells were harvested at 48 hpi and a western blot performed. Membranes were blotted for viral late gene VP1, LTAg, cellular MAT2A/MAT1A, and tubulin as a loading control.
(iii) Viral gene expression is modulated in response to PF-9366: The density of BKPyV VP1 and LTAg expression were measured, normalized to tubulin loading control (LiCor Image Studio Software), n=3.
as §1, §2
It has previously been noted by Quinlan et al. (Nat Chem Biol. 2017 13 (7): 785-792) that treatment with PF-9366 can increase MAT2A expression as a compensatory mechanism within cells. To investigate this, cells were once again treated with a range of PF-9366 for 3 hours prior to infection (or DMSO treated). Cells were infected with BKPyV (MOI 3), washed at 1 hpi, and fresh drug treated media was added. At 48 hpi cells were harvested and protein expression was analysed by western blotting (FIG. 3C(i)). MAT2A expression was quantified from band intensities, normalised to the tubulin loading control and plotted (FIG. 3C(ii), n=3). A clear increase in the cellular expression of MAT2A was observed, up to an 8-fold increase at 10 μM PF-9366. Western blot analysis was also conducted on early viral gene (LTAg) and late viral gene (VP1) expression (FIG. 3C(iii), n=3).
Cell lysate preparation and western blots were performed as described in Ren et al. (J Gen Virol. 2012 February; 93 (Pt 2): 319-329). Primary antibodies used were ab53977 (VP1), PAb416 (LTAg), sc-166452 (MAT2A/1A), ab110226 (VP16), sc-53070 (ICP0), anti-Zika E Protein, and either anti-GAPDH or anti-tubulin as a loading control, followed by IRDye 680LT-, or IRDye 800CW-conjugated secondary antibodies. Imaging was performed using the LI-COR Odyssey Infrared Imaging system. Quantification was performed using LI-COR Image Studio Software.

cell proliferation = conditions: value used to set treatment concentration; read-out: proliferative IC50; cited from earlier work
[3] = 125 nM to 1 μM, dose dependent, MOI 1, 48 hr post infection

Row | Compound | inhibition of BKPyV replication (total infectious BKPyV, FFU titre) (BKPyV [1]; 125 nM, 250 nM, 500 nM and 1 μM, added 1 hr post infection, MOI 1, 48 hr post infection) | potency against BKPyV replication (BKPyV [1]; AG270 1 μM or AZ33 125 nM in conjunction with Ilaprazole (5 μM), compared with MAT2A inhibitor alone) | early viral protein (LTAg) levels (western blot) (BKPyV [2]; [3]) | late viral protein (VP1) levels (western blot) (BKPyV [2]; [3]) | IC50 (cell proliferation) [µM] | reduction in infectious virus production (BKPyV [1]; 2.5 μM (lowest concentration), 48 hpi) [%] | reduction in viral titre for BKPyV (BKPyV [1]; 2.5 μM, MOI 1, 48 hpi) | reduction in infectious virus production (BKPyV [1]; 40 μM (maximum), 48 hpi) [%] | VP1 expression (western blot) (BKPyV [2]; across the concentration range of PF-9366, BKPyV MOI 3, 48 hpi) | expression of LTAg (western blot) (BKPyV [2]; two highest concentrations of PF-9366, BKPyV MOI 3, 48 hpi)
1 | COc1ccc(-c2c(Nc3ccccn3)[nH]c3c(C4=CCCCC4)c(-c4ccccc4)nn3c2=O)cc1 [AG-270] | significant dose dependent inhibition | increased potency | reduced | reduced | 0.257 | – | – | – | – | –
2 | CN(C)CCc1nnc2cc(-c3ccccc3)c3cc(Cl)ccc3n12 [PF-9366] | – | – | – | – | 10 | 60 | 2-3 fold | ~95 | dose-dependent reduction | Reduced expression
